How the values were obtained:
[1] = relationship of serum concentration of compound 4 with laboratory markers and symptoms of pseudohyperaldosteronism; assay type: in vivo, human
Description: Evaluation of the Pathological Relationship Between Compound 4 and Pseudohyperaldosteronism Pathology
We recorded the following available clinical symptoms and laboratory data when blood samples were drawing from patients: age, sex, complications, concomitant medications, daily liquorice dose, duration of administration of liquorice-containing herbal preparations, symptoms (blood pressure and pedal oedema), and laboratory test values, namely: total protein, albumin, total and direct bilirubin, aspartate amino transferase, alanine amino transferase, blood urea nitrogen, creatinine, sodium, potassium, chloride, calcium, magnesium, prothrombin time, plasma renin activity or activated renin concentration, and plasma aldosterone concentration (blood test data), and urine concentrations of potassium and creatinine (urinalysis data). Samples were processed according to the individual institutional protocols, and all data were measured at each institution.
FIGURE 3 Concentration of 4 in human serum samples and three or laboratory markers (A) Strong positive correlation was identified between serum concentrations of 3 and 4.

[2] = molecular target: T1, human OAT1 (Homo sapiens, UniProt Q4U2R8); assay: uptake into HEK293 cells transfected with OAT1; assay type: in vitro ADME; settings: HEK293, EHBR plasma, 37°C, 15 min
T1 construct: expressed in transfected cells; host or cells: HEK293 cells, pCI-neo vector
T1 sequence (Q4U2R8 1-563): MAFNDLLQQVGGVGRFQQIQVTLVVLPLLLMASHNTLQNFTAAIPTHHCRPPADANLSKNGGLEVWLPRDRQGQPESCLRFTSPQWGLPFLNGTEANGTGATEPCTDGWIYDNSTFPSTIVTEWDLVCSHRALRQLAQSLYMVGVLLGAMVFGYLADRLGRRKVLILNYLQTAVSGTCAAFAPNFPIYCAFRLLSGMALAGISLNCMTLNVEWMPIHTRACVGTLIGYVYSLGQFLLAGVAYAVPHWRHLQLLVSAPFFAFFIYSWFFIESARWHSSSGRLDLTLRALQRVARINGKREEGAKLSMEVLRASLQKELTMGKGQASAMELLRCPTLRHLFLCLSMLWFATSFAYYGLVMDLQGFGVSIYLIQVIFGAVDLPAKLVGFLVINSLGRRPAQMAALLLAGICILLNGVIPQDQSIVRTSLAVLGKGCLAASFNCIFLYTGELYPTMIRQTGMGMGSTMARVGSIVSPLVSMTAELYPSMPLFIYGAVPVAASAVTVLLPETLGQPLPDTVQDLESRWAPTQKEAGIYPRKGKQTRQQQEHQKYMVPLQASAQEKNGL
Description: (§1) Uptake of Compound 4 by Rat Kidney Slices and Cells Expressing OAT1 and 3
(§2) For the uptake study of 4 into rat kidney slices, we used the samples obtained in our previous study ([Ishiuchi et al., 2019]). For the uptake study of 4 into the cells transiently expressing OAT1 and OAT3, we used the same protocol as in our previous study ([Makino et al., 2012]). cDNAs encoding human OAT1 and OAT3 inserted into pGH19 were generously supplied by Prof. Mitsuru Sugawara (Hokkaido University, Sapporo, Japan), and then subcloned into a pCI-neo mammalian expression vector (Promega, Madison, WI, United States). We used the same pooled plasma of male EHBRs orally treated with GA for 12 h used in our previous study ([Ishiuchi et al., 2019]).
(§3) FIGURE 2 Inhibitory effects of compound 4 on type-2 11β-hydroxysteroid dehydrogenase (11β-HSD2) using rat kidney microsome (A), and the uptake of 4 into rat kidney slices (B) or into HEK293 cells transfected with organic anion transporter (OAT) 1 (C) or OAT3 (D). […] Then, the amount of [^3H] cortisol was measured. […] Concentrations of 4 in kidney slice homogenates were measured using liquid chromatography-tandem mass spectrometry (LC-MS/MS). **p < 0.01 vs 4°C group using Student’s t-test (C) Male EHBRs were orally treated with GA (200 mg/kg) and their plasma samples were collected […] after treatment. […] Then, concentrations of 4 in cells were measured using LC-MS/MS. […]

[3] = molecular target: T2, human OAT3 (Homo sapiens, UniProt Q8TCC7); assay: uptake into HEK293 cells transfected with OAT3; assay type: in vitro ADME; settings: HEK293, EHBR plasma, 37°C, 15 min
T2 construct: expressed in transfected cells; host or cells: HEK293 cells, pCI-neo vector
T2 sequence (Q8TCC7 1-542): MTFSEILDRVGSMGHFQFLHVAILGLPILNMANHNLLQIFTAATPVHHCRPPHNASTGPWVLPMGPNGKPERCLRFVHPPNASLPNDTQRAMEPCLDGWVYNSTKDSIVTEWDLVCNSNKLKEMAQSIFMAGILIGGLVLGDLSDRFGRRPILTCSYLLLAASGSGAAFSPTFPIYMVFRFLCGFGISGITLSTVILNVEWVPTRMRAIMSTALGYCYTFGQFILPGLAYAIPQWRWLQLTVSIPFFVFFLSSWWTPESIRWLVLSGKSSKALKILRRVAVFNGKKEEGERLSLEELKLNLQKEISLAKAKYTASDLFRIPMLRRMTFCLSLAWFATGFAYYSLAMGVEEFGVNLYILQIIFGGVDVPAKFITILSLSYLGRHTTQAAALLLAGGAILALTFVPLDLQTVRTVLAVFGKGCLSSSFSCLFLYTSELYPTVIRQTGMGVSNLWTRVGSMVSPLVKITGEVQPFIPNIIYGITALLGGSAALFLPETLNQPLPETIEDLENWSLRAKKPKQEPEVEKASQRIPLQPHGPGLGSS
Description: as §1, §2, §3

CC1(C)[C@@H](OS(=O)(=O)O)CC[C@]2(C)[C@H]3C(=O)C=C4[C@@H]5C[C@@](C)(C(=O)O[C@@H]6O[C@H](C(=O)O)[C@@H](O)[C@H](O)[C@H]6O)CC[C@]5(C)CC[C@@]4(C)[C@]3(C)CC[C@@H]12 [Compound 4, 18β-glycyrrhetyl-3-O-sulfate-30-O-glucuronide]
relationship with clinical symptoms ([1]; blood pressure, oedema): not significant | correlation of serum concentration with plasma renin activity and aldosterone concentration ([1]; human serum samples): negative correlations | serum potassium concentration in participants with higher serum concentrations ([1]; human serum samples): tended to be lower | uptake into cells expressing OAT1 vs mock cells [2]: significantly higher | uptake into cells expressing OAT3 vs mock cells [3]: significantly higher

— paper PMC8165744, “Identification of an Alternative Glycyrrhizin Metabolite Causing Liquorice-Induced Pseudohyperaldosteronism and the Development of ELISA System to Detect the Predictive Biomarker” (Frontiers in Pharmacology, 2021)
